In ChEMBL document CHEMBL4665852, “Hydroxylated Ethacrylic and Tiglic Acid Derivatives from the Stems and Branches of Enkianthus chinensis and Their Potential Anti-inflammatory Activities” (J Nat Prod, 2020) one finds inhibition, IC50 and Activity data, which are given here for 2 molecules.

Data set [1] concerns Peritoneal macrophage. Kind of data set: Antiinflammatory activity in C57BL/6J mouse peritoneal macrophages assessed as inhibition of LPS-induced NO production at 10 uM preincubated for 1 hrs followed by LPS-stimulation and measured after 24 hrs by Griess reagent-based assay relative to control. The class given is functional. As to conditions: time 25 hrs. For orientation: Nitrite, measured by Griess reagent, commonly stands in for NO production.

Data set [2] concerns Peritoneal macrophage. Kind of data set: Antiinflammatory activity in C57BL/6J mouse peritoneal macrophages assessed as inhibition of LPS-induced NO production preincubated for 1 hrs followed by LPS-stimulation and measured after 24 hrs by Griess reagent-based assay relative to control. In kind it is functional, cell-based.
Data set [3] concerns Peritoneal macrophage. Put plainly: Cytotoxicity against C57BL/6J mouse Peritoneal macrophages assessed as reduction in cell growth incubated for 1 hr. In kind it is cell-based.

As usually defined, the inhibition is the share of the control response that was lost under treatment. By IC50 is commonly meant the concentration at which inhibition is half-maximal. For the molecule `C/C=C(\CO)C(=O)OC/C(=C\CO)C(=O)OC`, the inhibition at 10 µM in the data set on Peritoneal macrophage [1] is 84.9%. Further, in the data set with Peritoneal macrophage [2], the IC50 is 1.2 µM. For the same molecule, the Activity entry with Peritoneal macrophage [3] was “Non-Toxic”.
With `CC[C@](O)(C(=O)OC/C(=C\CO)C(=O)OC)[C@@H](C)O`, the inhibition at 10 µM in the data set with Peritoneal macrophage [1] amounted to 64.3%. Also, the IC50 in the data set with Peritoneal macrophage [2] turned out to be 2.9 µM. Moreover, the Activity result with Peritoneal macrophage [3] is on record as “Non-Toxic”.
